Laboratory results reported in patent US10167262B2, “Herbicidal substituted 3-arylpyrazoles” (FMC CORPORATION, priority 2014, dated 2019).

Experiments:
Format in all cases: in vivo
[1] = system: barnyardgrass (Echinochloa crus-galli); assay: Test A pre-/postemergence greenhouse herbicide test, visual injury rating 0-100; details: 1000 g ai/ha
Procedure, shortened: (§1)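 Scale 0–100 (none to complete control), visual, versus untreated controls after approx. 10 greenhouse days. Pre: directed soil spray at planting. Post: 2–10 cm, one- to two-leaf plants. Non-phytotoxic solvent plus surfactant vehicle.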

[2] = system: corn (Zea mays); assay: as above; details: 1000 g ai/ha
Procedure, shortened: as §1

[3] = system: giant foxtail (Setaria faberii); assay: as above; details: 1000 g ai/ha
Procedure, shortened: as §1

[4] = system: large (Lg) crabgrass (Digitaria sanguinalis); assay: as above; details: 1000 g ai/ha
Procedure, shortened: as §1

[5] = system: morningglory (Ipomoea spp.); assay: as above; details: 1000 g ai/ha
Procedure, shortened: as §1

[6] = system: pigweed (Amaranthus retroflexus); assay: as above; details: 1000 g ai/ha
Procedure, shortened: as §1

[7] = system: velvetleaf (Abutilon theophrasti); assay: as above; details: 1000 g ai/ha
Procedure, shortened: as §1

[8] = system: wheat (Triticum aestivum); assay: as above; details: 1000 g ai/ha
Procedure, shortened: as §1

[9] = system: blackgrass (Alopecurus myosuroides); assay: Test C pre-/postemergence greenhouse test, plant response rating 0-100;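 further: 0 is no effect and 100 is complete control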
Procedure, shortened: (§2)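 Plants were scored visually against controls 13–15 days after treatment on a 0–100 scale, 100 meaning complete control. Test chemicals, formulated in surfactant-containing non-phytotoxic solvent, went preemergence onto seeds in loam–sand blend or postemergence onto 1- to 4-leaf plants (2–18 cm) grown in peat-based mix.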

[10] = system: large (Lg) crabgrass (Digitaria sanguinalis); assay: as above
Procedure, shortened: as §2

[11] = system: morningglory (Ipomoea coccinea); assay: as above
Procedure, shortened: as §2

[12] = system: ragweed (common ragweed, Ambrosia elatior); assay: as above;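 further: 0 is no effect and 100 is complete control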
Procedure, shortened: as §2

[13] = system: velvetleaf (Abutilon theophrasti); assay: as above
Procedure, shortened: as §2

[14] = Postemergence, 125 g ai/ha, scale 0 to 100
[15] = Postemergence, 250 g ai/ha, scale 0 to 100

O=C(c1cncc(F)c1)c1c[nH]nc1-c1cc(Cl)cc(Cl)c1 [Compound 19]
40: Plant response rating (0 to 100), Velvetleaf ([13]; Postemergence, 125 g ai/ha) | Plant response rating, Velvetleaf ([13]; Preemergence, 62 g ai/ha)
90: Plant response rating (0 to 100 scale), Velvetleaf ([7]; Preemergence) | Plant response rating, Ragweed [12, 15]
0: Plant response rating (0 to 100 scale), Barnyardgrass ([1]; Postemergence) | Plant response rating (0 to 100 scale), Barnyardgrass ([1]; Preemergence) | Plant response rating (0 to 100 scale), Corn ([2]; Postemergence) | Plant response rating (0 to 100 scale), Corn ([2]; Preemergence) | Plant response rating (0 to 100 scale), Foxtail, Giant ([3]; Postemergence) | Plant response rating (0 to 100 scale), Foxtail, Giant ([3]; Preemergence) | Plant response rating (0 to 100 scale), Crabgrass, Large ([4]; Postemergence) | Plant response rating (0 to 100 scale), Crabgrass, Large ([4]; Preemergence) | Plant response rating (0 to 100 scale), Morningglory ([5]; Postemergence) | Plant response rating (0 to 100 scale), Morningglory ([5]; Preemergence) | Plant response rating (0 to 100 scale), Wheat ([8]; Postemergence) | Plant response rating (0 to 100 scale), Wheat ([8]; Preemergence) | Plant response rating (0 to 100), Blackgrass ([9]; Postemergence, 31 g ai/ha) | Plant response rating (0 to 100), Blackgrass ([9]; Postemergence, 62 g ai/ha) | Plant response rating, Blackgrass [9, 14] | Plant response rating, Blackgrass [9, 15] | Plant response rating, Blackgrass ([9]; Preemergence, 62 g ai/ha) | Plant response rating, Blackgrass ([9]; Preemergence, 125 g ai/ha) | Plant response rating (0 to 100), Crabgrass, Large ([10]; Postemergence, 31 g ai/ha) | Plant response rating (0 to 100), Crabgrass, Large ([10]; Postemergence, 62 g ai/ha) | Plant response rating, Crabgrass, Large ([10]; Preemergence, 31 g ai/ha) | Plant response rating, Crabgrass, Large ([10]; Preemergence, 62 g ai/ha) | Plant response rating, Crabgrass, Large ([10]; Preemergence, 125 g ai/ha) | Plant response rating, Crabgrass, Large ([10]; Preemergence, 250 g ai/ha) | Plant response rating (0 to 100), Morningglory ([11]; Postemergence, 62 g ai/ha) | Plant response rating (0 to 100), Morningglory ([11]; Postemergence, 125 g ai/ha) | Plant response rating, Morningglory [11, 15] | Plant response rating, Morningglory ([11]; Preemergence, 31 g ai/ha) | Plant response rating, Morningglory ([11]; Preemergence, 62 g ai/ha) | Plant response rating, Morningglory ([11]; Preemergence, 125 g ai/ha)
100: Plant response rating (0 to 100 scale), Pigweed ([6]; Postemergence) | Plant response rating (0 to 100 scale), Pigweed ([6]; Preemergence) | Plant response rating (0 to 100 scale), Velvetleaf ([7]; Postemergence) | Plant response rating, Ragweed ([12]; Preemergence, 125 g ai/ha) | Plant response rating, Ragweed ([12]; Preemergence, 250 g ai/ha)
25: Plant response rating (0 to 100), Velvetleaf ([13]; Postemergence, 62 g ai/ha)
85: Plant response rating, Ragweed ([12]; Preemergence, 62 g ai/ha)
10: Plant response rating, Blackgrass ([9]; Preemergence, 31 g ai/ha) | Plant response rating (0 to 100), Crabgrass, Large ([10]; Postemergence, 125 g ai/ha) | Plant response rating, Crabgrass, Large [10, 15] | Plant response rating, Morningglory ([11]; Preemergence, 250 g ai/ha)
75: Plant response rating, Velvetleaf ([13]; Preemergence, 125 g ai/ha)
70: Plant response rating (0 to 100), Ragweed ([12]; Postemergence, 62 g ai/ha)
50: Plant response rating, Blackgrass ([9]; Preemergence, 250 g ai/ha)
80: Plant response rating (0 to 100), Ragweed ([12]; Postemergence, 125 g ai/ha)
98: Plant response rating, Velvetleaf ([13]; Preemergence, 250 g ai/ha)
55: Plant response rating, Velvetleaf [13, 15]

Cn1cc(C(=NN2CCCC2)c2ccccc2)c(-c2cc(Cl)c(Cl)c(Cl)c2)n1 [Compound 25]
20: Plant response rating (0 to 100 scale), Velvetleaf ([7]; Preemergence)
0: Plant response rating (0 to 100 scale), Barnyardgrass ([1]; Postemergence) | Plant response rating (0 to 100 scale), Barnyardgrass ([1]; Preemergence) | Plant response rating (0 to 100 scale), Corn ([2]; Postemergence) | Plant response rating (0 to 100 scale), Corn ([2]; Preemergence) | Plant response rating (0 to 100 scale), Foxtail, Giant ([3]; Postemergence) | Plant response rating (0 to 100 scale), Foxtail, Giant ([3]; Preemergence) | Plant response rating (0 to 100 scale), Crabgrass, Large ([4]; Postemergence) | Plant response rating (0 to 100 scale), Crabgrass, Large ([4]; Preemergence) | Plant response rating (0 to 100 scale), Morningglory ([5]; Postemergence) | Plant response rating (0 to 100 scale), Morningglory ([5]; Preemergence) | Plant response rating (0 to 100 scale), Wheat ([8]; Postemergence) | Plant response rating (0 to 100 scale), Wheat ([8]; Preemergence) | Plant response rating (0 to 100), Blackgrass ([9]; Postemergence, 31 g ai/ha) | Plant response rating (0 to 100), Blackgrass ([9]; Postemergence, 62 g ai/ha) | Plant response rating, Blackgrass [9, 14] | Plant response rating (0 to 100), Crabgrass, Large ([10]; Postemergence, 31 g ai/ha) | Plant response rating (0 to 100), Crabgrass, Large ([10]; Postemergence, 62 g ai/ha) | Plant response rating (0 to 100), Crabgrass, Large ([10]; Postemergence, 125 g ai/ha) | Plant response rating, Crabgrass, Large [10, 15] | Plant response rating (0 to 100), Morningglory ([11]; Postemergence, 62 g ai/ha) | Plant response rating (0 to 100), Morningglory ([11]; Postemergence, 125 g ai/ha) | Plant response rating, Morningglory [11, 15] | Plant response rating (0 to 100), Ragweed ([12]; Postemergence, 62 g ai/ha) | Plant response rating (0 to 100), Ragweed ([12]; Postemergence, 125 g ai/ha) | Plant response rating, Ragweed [12, 15]
70: Plant response rating, Velvetleaf [13, 15]
65: Plant response rating (0 to 100), Velvetleaf ([13]; Postemergence, 125 g ai/ha)
90: Plant response rating (0 to 100 scale), Pigweed ([6]; Postemergence) | Plant response rating (0 to 100 scale), Pigweed ([6]; Preemergence)
80: Plant response rating (0 to 100 scale), Velvetleaf ([7]; Postemergence)
55: Plant response rating (0 to 100), Velvetleaf ([13]; Postemergence, 62 g ai/ha)
5: Plant response rating, Blackgrass [9, 15]
